Measured values as given in patent US20260240820A1, “METHOD FOR CONTROLLING MEMBRANE POTENTIAL-DEPENDENT ION CHANNEL THROUGH TYPE I TASTE RECEPTORS (T1RS)” (ION CHAT RESEARCH CORPORATE, priority 2022, published 2026).
Entries after “also recorded” stand apart in the source; their conditions may differ. Like-named read-outs stand apart in the source and are kept apart here.

How the values were obtained:
Nav1.5 = assay: Patch-clamp (voltage clamp) recording of VGSC current in HEK cells stably expressing Nav1.5
[1] = system: Nav1.5 in T1R3-silenced HEK cells; assay: VGSC current in HEK Nav1.5 cells with silenced T1R3; type: cell-based, human
Description: The miRNAs Oligo (Thermofisher) used for silencing were annealed to form double-stranded DNA, which was then linked to the miR RNAi Expression Vector using T4 DNA ligase to create the knockdown vector. Specifically, the procedure followed the miR RNAi Expression Vector Kit manual (BLOCK-i™ Pol II miR RNAi Expression Vector Kit with EmGFP (Catalog number: K493600)).
Since Aβ25-35 peptide produced similar effects (enhancing VGSC activity, lowering the excitability threshold) as glutamine, it was considered that Aβ25-35 peptide might also act on T1R2/T1R3 receptors like glutamine. Therefore, in this implementation example, we used HEK-Nav1.5 cells with silenced T1R3 and compared the effect of Aβ25-35 peptide on VGSC with that in control HEK-Nav1.5 cells.
To strengthen these findings, we conducted similar experiments using HEK Nav1.5 cells in which T1R3 expression was silenced (FIG. 22). We measured VGSC currents in T1R3-silenced HEK Nav1.5 cells, applying stimuli every 8 seconds.

VGSC = assay: Patch-clamp recording of VGSC current, cell type not specified or several cell types (summary statements); type: cell-based, human; conditions: for Effect on VGSC current: concentrations higher than 1 mM
[2] = system: VGSC of SH-SY5Y cells (Nav1.7, Nav1.2, Nav1.3); assay: Patch-clamp recording of VGSC current in differentiated SH-SY5Y cells; type: cell-based, human; conditions: for IC50: read-out: IC50 (VGSC inhibition)
Description: Furthermore, the inventors focused on the relationship between taste receptors, particularly the sweet or umami receptors containing the T1R3 subunit, which are widely expressed in the brain and nervous system, including the hippocampus and cortex. They used human neuroblastoma cells (SH-SY5Y) that functionally express Nav1.2, Nav1.3, and Nav1.7 (as reported in non-patent literature 8), as well as HEK cells stably expressing Nav1.5 (with endogenous expression of T1R1, T1R2, and T1R3). They observed the effects of taste stimuli on sodium channel activation. By reducing the expression of T1R1 and T1R3 genes using silencing vectors, they confirmed that the effects on sodium channel currents induced by taste stimuli act through taste receptor GPCRs.
The SH-SY5Y cell culture medium was prepared by mixing DMEM (Sigma-Aldrich) and F-12 (Sigma-Aldrich) in equal proportions. To induce neuronal-like differentiation, the medium contained 1% FBS (BioWest), 5% 40 mM L-Glutamine (Fuji Film), and 1% MEM non-essential amino acids (Wako Pure Chemical Industries). During differentiation, SH-SY5Y cells were cultured for at least 5 days with the addition of 10 μM/ml retinoic acid (Fuji Film). In this document, “SH-SY5Y cells” refer to the SH-SY5Y cell line differentiated into neuronal-like cells.

[3] = system: voltage-dependent potassium channel current of SH-SY5Y cells; assay: Voltage clamp recording of outward potassium current in SH-SY5Y cells; type: cell-based, human; conditions: 2 mM
Description: The inward current represents the transient peak observed immediately after stimulation, while the outward current measures the average value during the last 50 ms of rectangular pulse stimulation.

Nav1.6 = assay: Patch-clamp recording of VGSC current in HEK (Nav1.6) cells; type: cell-based, human
Description: The cells used in the previous (18-1) experiment were cardiac-type VGSC cells. In this experiment, HEK (Nav1.1) and HEK (Nav1.6) cells, which are considered neuronal VGSC cells, were created. The effects of four peptides—Aβ25-35, Aβ1-38, Aβ1-40, and Aβ1-42—were examined using the same experimental protocol as in (18-1). […]

[4] = system: endogenous T1R GPCR of HEK cells; assay: Intracellular calcium (Cal-520) in HEK cells stably expressing Nav1.1 with endogenous T1R GPCR; type: cell-based, human; conditions: 10 nM then 20 nM for Aβ1-40 and Aβ1-42
Description: Specifically, experiments were conducted as follows using HEK cells stably expressing Nav1.1 (FIG. 45). The calcium-sensitive reagent (Cal-520, AAT Bioquest) was incubated at 37° C. for 60 minutes, followed by incubation at room temperature for 30 minutes, and then changes in intracellular calcium were measured using a fluorescence microscope. […] Initially, 10 nM, followed by 20 nM of Aβ1-40 was applied after 5 minutes (arrow). […] A total of 6 cell groups from two independent experiments were measured, averaged by the maximum fluorescence response value, and the mean and standard error (stderr) were calculated and plotted. […] 10 nM, followed by 20 nM of Aβ1-42 was applied after 5 minutes (arrow). […] A total of 12 cell groups from two independent experiments were measured, averaged by the minimum fluorescence response value, and the mean and standard error (stderr) were calculated and plotted. Similar to the experimental results using the patch-clamp method when Aβ peptide was applied to Nav1.5, it was confirmed from intracellular calcium measurements that the effects of Aβ1-40 and Aβ1-42 were different.

Nav1.1 = assay: Patch-clamp recording of VGSC current in HEK (Nav1.1) cells; type: cell-based, human
Description: The cells used in the previous (18-1) experiment were cardiac-type VGSC cells. In this experiment, HEK (Nav1.1) and HEK (Nav1.6) cells, which are considered neuronal VGSC cells, were created. The effects of four peptides—Aβ25-35, Aβ1-38, Aβ1-40, and Aβ1-42—were examined using the same experimental protocol as in (18-1).

Kv1.2 = assay: Patch-clamp recording of Kv1.2 potassium current in HEK cells expressing Kv1.2; type: cell-based, human
Description: The effects of Aβ peptides or umami substances on sustained potassium currents (VGKC) in cardiac myocytes can be studied using HEK cells expressing VGKC (such as Kv1.2, Kv3.2, Kv3.3) as well as SH-SY5Y cells expressing endogenous T1R GPCRs. For instance, as shown in the implementation example in (FIG. 36B), Aβ peptides were applied to VGKC-expressing human cultured cells, and VGKC currents were recorded using ramp-like or rectangular voltage waveforms via the patch-clamp technique. This allowed measurement of the changes (inhibition) in VGKC currents caused by Aβ peptides. Similar inhibition studies on VGKC can be conducted using umami substance L-glutamate sodium (MSG) (FIG. 36A).
As shown in (FIG. 37), Aβ1-42 peptide, unlike Aβ25-35 targeting T1R3, interacts with T1R1 and inhibits VGSC currents (FIGS. 37D, E).

Question: How did the “Effect on VGSC current” value (Nav1.5; 5 μM) turn out when `CC(C)(Cc1ccc2ccccc2c1)NC[C@@H](O)COc1cccc(Cl)c1C#N` [NPS-2143] was run?
Answer: The value was “Inhibitory effect; also recorded: slowly inhibited”.

Question: And the “Effect on leak (baseline) current” value (Nav1.5; when VGSC inhibition nearly complete)?
Answer: Its value is “non-selective leak currents”.

Question: What about the “Effect on VGSC in T1R3-silenced cells” value [1] of the same compound?
Answer: The value was “no VGSC inhibitory effect was observed”.

Question: What about the “Effects on VGSCs” value (VGSC) of the same compound?
Answer: Its value is “inhibited human VGSC; also recorded: Inhibition of VGSCs”.

Question: And the “Required concentration for VGSC inhibition” value (VGSC; HEK Nav1.5 and SH-SY5Y)?
Answer: Its value is 5 µM.

Question: What does the source list for `Nc1nc2c(ncn2[C@@H]2O[C@H](COP(=O)(O)O)[C@@H](O)[C@H]2O)c(=O)[nH]1` [GMP, guanosine 5′-monophosphate]?
Answer: Leftward shift in the I-V curve [2]: approximately 10 mV; Effect on VGSC current ([2]; 2 mM): slight increase in VGSC currents; Steady-state inactivation curve ([2]; 2 mM): No change; also recorded: No changes were observed; Effects on VGSCs (VGSC): enhances VGSC; also recorded: Enhancement of VGSC; Effect on VGSC (VGSC; 1 mM): 1 mM GMP, much like L-Gln, primarily enhances VGSC without altering; Effect on outward potassium current [3]: peak outward potassium current decreases; also recorded: reduced outward potassium currents

Question: What does the source list for `CC(Oc1ccc(Cl)cc1Cl)C(=O)O` (stereo not drawn) [dichlorprop, 2-(2,4-dichlorophenoxy) propanoic acid]?
Answer: Effect on VGSC current amplitude (Nav1.5): reduced the amplitude of VGSC current; Vh of steady-state inactivation curve (Nav1.5; 500 μM): shifted to a more negative potential; Slope of steady-state inactivation curve (Nav1.5; Control vs 300 and 500 μM, t-test): no significant difference; Effect on S-S curve of VGSC in the presence of Taxol (Nav1.5; in the presence of Taxol): shifted the S-S curve of VGSC in the hyperpolarizing direction; IC50 ([2]; prepulse −80 mV): 17.3 µM; IC50 ([2]; prepulse/holding voltage −60 mV): 9 µM; Rank among sweet taste inhibitors in inhibiting Na+ channels (VGSC; dichlorprop>>clofibrate>lactisole): most effective inhibitor of sodium channels at the lowest concentration; also recorded: most potent; Effects on VGSCs (VGSC; listed as DichrolProp): Inhibition of VGSCs

Question: Which “Effect on VGSC inactivation” value (Nav1.5) does the source give for “Aβ1-38: amyloid β peptide (Peptide Institute), Sequence No. 2” here?
Answer: Its value is “delayed inactivation effect”.

Question: And the “Shift of steady-state inactivation (S-S) curve of VGSC” value (Nav1.5)?
Answer: The value was “shifted to the right; also recorded: shifting to the depolarizing side”.

Question: What about the “VGSC current from prepulse/holding potential −80 mV” value (Nav1.5) of the same compound?
Answer: The value was “enhancing currents; also recorded: significantly amplified”.

Question: What about the “VGSC current from prepulse/holding potential −120 mV” value (Nav1.5) of the same compound?
Answer: The value was “decreased; also recorded: slightly decreased”.

Question: And the “Effect on VGSC in T1R3-silenced cells” value [1]?
Answer: The value was “is lost”.

Question: What about the “Effect on VGSC current” value (Nav1.6) of the same compound?
Answer: Its value is “VGSC enhancement”.

Question: And the “Change in intracellular calcium” value [4]?
Answer: Its value is “an increase in intracellular calcium was observed”.

Question: And the “Effect on VGSC current” value (Nav1.1)?
Answer: The value was “VGSC enhancement”.

Question: Which “Effect on voltage gated K+ channel (Kv1.2) current” value (Kv1.2) does the source give for `NC(=O)CC[C@H](N)C(=O)O` [L-Gln, L-glutamine] here?
Answer: Its value is “Inhibition of Voltage gated”.

Question: What about the “Effect on VGSC inward current” value ([2]; 500 μM) of the same compound?
Answer: Its value is “enhancement of transient downward VGSC current; also recorded: amplification of VGSC inward current”.

Question: And the “Effects on VGSCs” value (VGSC)?
Answer: Its value is “Enhancement of VGSC; also recorded: Delay in VGSC inactivation”.

Question: What about the “Increase in VGSC current” value (VGSC; 0.5-1 mM, SH-SY5Y (n=8) and HEK-Nav1.5 (n=4)) of the same compound?
Answer: The value was 10-20%.

Question: And the “Effect on VGSC current” value (VGSC)?
Answer: Its value is 500 uM and 1 mM but not at higher.

Question: What about the “Effect on VGSC current” value (VGSC; listed as glutamine) of the same compound?
Answer: Its value is “No further enhancement”.
